# Measured values taken from patent publication US20160002204A1 (Board of Regents, The University of Texas System, priority 2014, published 2016).
# What was measured:
# A549 cells = assay: A549 proliferation (viability) assay, Cell Titer Fluor, 72 hours; type: cell-based; settings: Homo sapiens
# In short: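 Compound exposure lasted 72 h (final DMSO 0.5% v/v) on A549 cells plated at 1000 cells/well one day earlier. Cell Titer Fluor added, 30 min at 37 °C, fluorescence read; EC50 derived by four-parameter logistic curve fitting.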
# [1] = target: T1, GLS1 (purified recombinant human GAC) (Homo sapiens, UniProt O94925); assay: GLS1 enzymatic activity assay (dual-coupled, Amplex UltraRed/resorufin); type: biochemical
# T1 sequence (O94925 55-598 isoform O94925-3 limits assumed): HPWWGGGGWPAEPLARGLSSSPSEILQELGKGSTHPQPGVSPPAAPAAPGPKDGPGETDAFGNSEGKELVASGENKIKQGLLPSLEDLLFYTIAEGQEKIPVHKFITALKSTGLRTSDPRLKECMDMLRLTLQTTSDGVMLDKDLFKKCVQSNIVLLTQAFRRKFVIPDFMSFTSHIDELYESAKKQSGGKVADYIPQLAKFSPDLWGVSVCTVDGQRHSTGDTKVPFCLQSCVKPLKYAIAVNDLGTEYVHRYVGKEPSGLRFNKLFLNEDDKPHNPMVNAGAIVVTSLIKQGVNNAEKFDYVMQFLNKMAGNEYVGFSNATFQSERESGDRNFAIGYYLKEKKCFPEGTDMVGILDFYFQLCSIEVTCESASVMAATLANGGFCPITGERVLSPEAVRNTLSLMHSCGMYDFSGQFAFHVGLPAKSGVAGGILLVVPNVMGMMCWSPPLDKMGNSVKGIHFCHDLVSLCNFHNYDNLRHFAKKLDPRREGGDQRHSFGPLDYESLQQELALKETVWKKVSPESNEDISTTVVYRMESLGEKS
# In short: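 GAC activity measured by coupling glutamate to glutamate oxidase and HRP, generating resorufin from Amplex UltraRed. Enzyme (2 nM) preincubated with 50 mM potassium phosphate 10 min at room temperature, then inhibitor 10 min; 1 mM glutamine substrate, 1% DMSO. Fluorescence 530/590 nm, kinetic or 20-min endpoint; IC50 from four-parameter logistic fit.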
SMILES,EC50 (A549 cells) [nM],IC50 [1] [nM]
"O=C(Cc1ccccc1)Nc1ccn(CCC(F)Cn2cc(C(=O)NCc3cc(C(F)(F)F)ccn3)nn2)c(=O)c1F (stereo not shown) [Example 323, 1-{2-fluoro-4-[3-fluoro-2-oxo-4-(2-phenylacetamido)-1,2-dihydropyridin-1-yl]butyl}-N-{[4-(trifluoromethyl)pyridin-2-yl]methyl}-1H-1,2,3-triazole-4-carboxamide]",< 100,< 100
"CCOC(=O)N1CCC(CC(=O)Nc2ccn(CCC(F)Cn3cc(C(=O)NCc4cc(C(F)(F)F)ccn4)nn3)c(=O)c2F)CC1 (stereo not shown) [Example 324, ethyl 4-{[(3-fluoro-1-{3-fluoro-4-[4-({[4-(trifluoromethyl)pyridin-2-yl]methyl}carbamoyl)-1H-1,2,3-triazol-1-yl]butyl}-2-oxo-1,2-dihydropyridin-4-yl)carbamoyl]methyl}piperidine-1-carboxylate]",< 100,< 100
"CC(=O)OC(C(=O)Nc1ccn(CC[C@H](F)Cn2cc(C(=O)NCc3cc(C(F)(F)F)ccn3)nn2)c(=O)c1F)c1ccccc1 (stereo partly drawn) [Example 325, (S)-[(3-fluoro-1-{3-fluoro-4-[4-({[4-(trifluoromethyl)pyridin-2-yl]methyl}carbamoyl)-1H-1,2,3-triazol-1-yl]butyl}-2-oxo-1,2-dihydropyridin-4-yl)carbamoyl](phenyl)methyl acetate]",< 100,< 100
"O=C(NCc1cc(C(F)(F)F)ccn1)c1cn(CC(F)CCn2ccc(NC(=O)[C@@H](O)c3ccccc3)c(F)c2=O)nn1 (stereo partly drawn) [Example 326, 1-(2-fluoro-4-{3-fluoro-4-[(2S)-2-hydroxy-2-phenylacetamido]-2-oxo-1,2-dihydropyridin-1-yl}butyl)-N-{[4-(trifluoromethyl)pyridin-2-yl]methyl}-1H-1,2,3-triazole-4-carboxamide]",< 100,< 100
"O=C(NCc1cccc(OC(F)(F)F)c1)c1cn(CC(F)CCn2ccc(NC(=O)C(F)c3ccccc3)c(F)c2=O)nn1 (stereo not shown) [Example 327, 1-{2-fluoro-4-[3-fluoro-4-(2-fluoro-2-phenylacetamido)-2-oxo-1,2-dihydropyridin-1-yl]butyl}-N-{[3-(trifluoromethoxy)phenyl]methyl}-1H-1,2,3-triazole-4-carboxamide]",< 100,< 100
"O=C(Cc1ccccc1F)Nc1ccn(CCC(F)Cn2cc(C(=O)NCc3cccc(OC(F)(F)F)c3)nn2)c(=O)c1F (stereo not shown) [Example 328, 1-(2-fluoro-4-{3-fluoro-4-[2-(2-fluorophenyl)acetamido]-2-oxo-1,2-dihydropyridin-1-yl}butyl)-N-{[3-(trifluoromethoxy)phenyl]methyl}-1H-1,2,3-triazole-4-carboxamide]",< 100,< 100
"O=C(CC1CCCC1)Nc1ccn(CCC(F)Cn2cc(C(=O)NCc3cc(C(F)(F)F)ccn3)nn2)c(=O)c1F (stereo not shown) [Example 329, 1-{4-[4-(2-cyclopentylacetamido)-3-fluoro-2-oxo-1,2-dihydropyridin-1-yl]-2-fluorobutyl}-N-{[4-(trifluoromethyl)pyridin-2-yl]methyl}-1H-1,2,3-triazole-4-carboxamide]",< 100,< 100
"CC(C)(C)OC(=O)Nc1ccn(CCC(F)Cn2cc(C(=O)NCc3cncc(C(F)(F)F)c3)nn2)c(=O)c1F (stereo not shown) [Example 330, tert-butyl N-(3-fluoro-1-{3-fluoro-4-[4-({[5-(trifluoromethyl)pyridin-3-yl]methyl}carbamoyl)-1H-1,2,3-triazol-1-yl]butyl}-2-oxo-1,2-dihydropyridin-4-yl)carbamate]",100 to 500,< 100

# Results, then the compound that gave them:
EC50 (A549 cells) [nM],IC50 [1] [nM],SMILES
> 5000,500 to 5000,"Nc1ccn(CCC(F)Cn2cc(C(=O)NCc3cncc(C(F)(F)F)c3)nn2)c(=O)c1F (stereo not shown) [Example 331, 1-[4-(4-amino-3-fluoro-2-oxo-1,2-dihydropyridin-1-yl)-2-fluorobutyl]-N-{[5-(trifluoromethyl)pyridin-3-yl]methyl}-1H-1,2,3-triazole-4-carboxamide]"
< 100,< 100,"O=C(CC1CCC1)Nc1ccn(CCC(F)Cn2cc(C(=O)NCc3cc(C(F)(F)F)ccn3)nn2)c(=O)c1F (stereo not shown) [Example 332, 1-{4-[4-(2-cyclobutylacetamido)-3-fluoro-2-oxo-1,2-dihydropyridin-1-yl]-2-fluorobutyl}-N-{[4-(trifluoromethyl)pyridin-2-yl]methyl}-1H-1,2,3-triazole-4-carboxamide]"
< 100,< 100,"O=C(Nc1ccn(CCC(F)Cn2cc(C(=O)NCc3cc(C(F)(F)F)ccn3)nn2)c(=O)c1F)C(=O)c1ccccc1 (stereo not shown) [Example 333, 1-{2-fluoro-4-[3-fluoro-2-oxo-4-(2-oxo-2-phenylacetamido)-1,2-dihydropyridin-1-yl]butyl}-N-{[4-(trifluoromethyl)pyridin-2-yl]methyl}-1H-1,2,3-triazole-4-carboxamide]"
< 100,< 100,"O=C(Cc1ccc(F)cc1F)Nc1ccn(CCC(F)Cn2cc(C(=O)NCc3cccc(OC(F)(F)F)c3)nn2)c(=O)c1F (stereo not shown) [Example 334, 1-(4-{4-[2-(2,4-difluorophenyl)acetamido]-3-fluoro-2-oxo-1,2-dihydropyridin-1-yl}-2-fluorobutyl)-N-{[3-(trifluoromethoxy)phenyl]methyl}-1H-1,2,3-triazole-4-carboxamide]"
100 to 500,< 100,"O=C(Cc1c(F)cccc1F)Nc1ccn(CCC(F)Cn2cc(C(=O)NCc3cccc(OC(F)(F)F)c3)nn2)c(=O)c1F (stereo not drawn) [Example 335, l-(4-{4-[2-(2,6-difluorophenyl)acetamido]-3-fluoro-2-oxo-1,2-dihydropyridin-1-yl}-2-fluorobutyl)-N-{[3-(trifluoromethoxy)phenyl]methyl}-1H-1,2,3-triazole-4-carboxamide]"
< 100,< 100,"O=C(CC1CCC1)Nc1ccn(CCC(F)Cn2cc(C(=O)NCc3cccc(C(F)(F)F)n3)nn2)c(=O)c1F (stereo not shown) [Example 336, 1-{4-[4-(2-cyclobutylacetamido)-3-fluoro-2-oxo-1,2-dihydropyridin-1-yl]-2-fluorobutyl}-N-{[6-(trifluoromethyl)pyridin-2-yl]methyl}-1H-1,2,3-triazole-4-carboxamide]"
< 100,< 100,"CC(C(=O)Nc1ccn(CCC(F)Cn2cc(C(=O)NCc3cccc(OC(F)(F)F)c3)nn2)c(=O)c1F)N1CCCCC1 (stereo not shown) [Example 337, 1-(2-fluoro-4-(3-fluoro-2-oxo-4-(2-(piperidin-1-yl)propanamido)pyridin-1(2H)-yl)butyl)-N-(3-(trifluoromethoxy)benzyl)-1H-1,2,3-triazole-4-carboxamide]"
100 to 500,100 to 500,"O=C(CN1CCCCC1)Nc1ccn(CCC(F)Cn2cc(C(=O)NCc3cccc(C(F)(F)F)n3)nn2)c(=O)c1F (stereo not shown) [Example 338, 1-(2-fluoro-4-{3-fluoro-2-oxo-4-[2-(piperidin-1-yl)acetamido]-1,2-dihydropyridin-1-yl}butyl)-N-{[6-(trifluoromethyl)pyridin-2-yl]methyl}-1H-1,2,3-triazole-4-carboxamide]"
< 100,< 100,"O=C(CC1CCC1)Nc1ccn(CCC(F)Cn2cc(C(=O)NCc3cccc(OC(F)(F)F)c3)nn2)c(=O)c1F (stereo not shown) [Example 339, 1-{4-[4-(2-cyclobutylacetamido)-3-fluoro-2-oxo-1,2-dihydropyridin-1-yl]-2-fluorobutyl}-N-{[3-(trifluoromethoxy)phenyl]methyl}-1H-1,2,3-triazole-4-carboxamide]"
